Results taken from US9241924B2, “Compositions of 5-ethyl-2-{4-[4-(4-tetrazol-1-yl-phenoxymethyl)-thiazol-2-yl]-piperidin-1-yl}-pyrimidine” (CYMABAY THERAPEUTICS, INC., priority 2010, dated 2016).
Values belong to the molecule of their own block, whether it stands above or below them.

Experiments:
[1] = Non-sink dissolution of melt extruded formulations in simulated gastric fluid; format: physicochemical
Method: (§1) Solid dispersion formulations of Compound A in Eudragit® E PO (Formulation 2) and Kollidon® VA 64 (Formulation 3) were examined for dissolution behavior under non-sink conditions to assess oral bioavailability enhancement. Studies were conducted in three different media preparations, including: simulated gastric fluid, fed state simulated intestinal fluid and fasted state simulated intestinal fluid, which are presented in Table 2, Table 3 and Table 4 and FIG. 1, FIG. 2 and FIG. 3.

[2] = Non-sink dissolution of melt extruded compositions in simulated fed state intestinal fluid; format: physicochemical
Method: as §1

[3] = In vivo systemic exposure in male beagle dogs, oral dosing; details: dog; for AUC(0-t): read-out: AUC0-24 hr
Method: In vivo testing was performed in male dogs to compare the systemic exposure of the 25% Compound A:CAP SDD (n=2) to that of the crystalline Compound A (n=2).

[4] = In vitro dissolution test in NaTC/POPC in PBS (pH 6.5); format: physicochemical; details: theoretical Cmax 200 μg/mL
Method: (§2) Samples were weighed, dissolved in the buffer system, centrifuged, and the supernatant analyzed by HPLC at 10, 20, 40, and 90 minutes.
(§3) Tables 7a and 7b and FIG. 6 compares in vitro dissolution performance of Compound A:CAP SDD with that of crystalline of Compound A, HPMCAS-MG, and HPMCAS-HG.

[5] = Non-sink dissolution of melt extruded compositions in simulated fasted state intestinal fluid; format: physicochemical
Method: as §1

[6] = In vitro dissolution of HPMCAS dispersions (Table 7b, simulated gastric fluid); format: physicochemical; details: dose 200 μg/mL, initial ninety minutes
Method: as §2, §3

[7] = Phase 1 multiple ascending dose study, pharmacokinetics; format: in vivo; details: human, blood, po, repeat (5) daily doses, mean (±SD); for AUC(0-t): read-out: AUC0-24 h
From the text: (§4) This is a single center, phase 1, double-blind, placebo-controlled, multiple ascending dose study of Compound A given orally as a reformulated tablet (spray dried dispersion, or SDD) to otherwise healthy subjects with “pre-diabetes” (impaired fasting glucose, impaired glucose tolerance, or HbA1C≧5.8), or diet-controlled type 2 diabetes mellitus. The study was designed to evaluate the safety, tolerability, pharmacokinetics (PK), and proof-of-concept pharmacodynamics of Compound A. Each dosing cohort consisted of a screening period to assess eligibility, a dosing and observational period, and a follow-up period.
The screening visit was used to assess preliminary eligibility in potential subjects who provided informed consent. Final eligibility for study enrollment was determined after check-in to the clinic on Day −3, before randomization and dosing (on Day 1). Eleven eligible subjects who successfully completed screening were enrolled into the lowest dose cohort that was yet to be filled, and randomly assigned in a double-blind fashion to receive Compound A (n=8) or matched placebo (n=3). Up to 4 additional subjects were admitted to the clinic and available as back-ups in the event that 1 of the original 11 subjects was not dosed for any reason.
Each of these study cohorts was enrolled and completed independently, and in sequential fashion. After completion of the inpatient observational period at Day 8, blinded clinical safety and laboratory parameters (including PK) were assessed in a teleconference between the Principal Investigator, or Sub-Investigator, and the Metabolex Medical Monitor, after which subject dosing assignments could have been unblinded, if necessary, for determination of dose-limiting toxicities (DLTs). If two dose-limiting toxicities (DLTs) occurred within the same treatment cohort in subjects receiving active drug, no further dose escalation would have been allowed, and the maximum tolerated dose (MTD) would have been defined by the dose in the previous cohort. Additionally, dosing may have been halted at the discretion of the sponsor depending on observed Compound A concentrations and PK parameters from the preceding cohort in context of the safety and pharmacodynamic profile of the preceding cohorts.
On Day −2, following a 10 hour overnight fast, up to 15 eligible subjects underwent a baseline MMTT administered between 9:30 and 10:15 am, for the assessment of glucose and insulin response and of total GLP-1 and glucagon. On Day −1, following a 10 hour overnight fast, up to 15 eligible subjects also underwent a baseline OGTT (75 g) administered at the identical time of day as the MMTT, for assessment of the same markers. After the baseline OGTT assessments, 11 subjects were enrolled and randomized into the current dosing cohort. Up to 4 additional subjects remained overnight to be available as back-ups in the event that 1 of the original 11 subjects was, for any reason, not dosed. If more than 11 eligible subjects meet the cohort requirements, the excess subjects may have been included in the next cohort check-in, if within the 35 day screening window and they continued to meet eligibility. On Days 1 through 5, following a 10 hour overnight fast, subjects received daily doses of Compound A or placebo exactly 2 hours earlier than the start of the baseline MMTT, under fasted conditions. The inpatient period in clinic began on Day −2 and concluded on Day 8, following the final inpatient study procedure. The following assessments were made in temporal relationship to the administration of the study drug, administered at Day 1, Time 0, unless otherwise stated: • Pharmacokinetic Blood and Urine Sampling: • Subjects randomized to Compound A or placebo underwent single dose (Day 1) and repeat dose (Day 4) PK. Compound A was measured pre-dose (t −30 and 0 min) on Day 1 and at 20 and 40 minutes, and 1, 2, 3, 4, 6, 8, 12, and 24 hours post-dose. […]

[8] = system: subjects with pre-diabetes; assay: Phase 1c study C, pharmacodynamics (MMTT/OGTT glucose excursion, fasting glucose); format: in vivo, human
From the text: as §4
On Day −2, following a 10 hour overnight fast, up to 15 eligible subjects underwent a baseline MMTT administered between 9:30 and 10:15 am, for the assessment of glucose and insulin response and of total GLP-1 and glucagon. On Day −1, following a 10 hour overnight fast, up to 15 eligible subjects also underwent a baseline OGTT (75 g) administered at the identical time of day as the MMTT, for assessment of the same markers. […] Compound A was measured pre-dose (t −30 and 0 min) on Day 1 and at 20 and 40 minutes, and 1, 2, 3, 4, 6, 8, 12, and 24 hours post-dose. Compound A was measured at identical timepoints associated with the Day 4 dose, but included additional measurements at 48 and 72 hours post-dose (Day 7). […]

[9] = SDD tablet 25 mg orally once daily
[10] = SDD tablet 100 mg orally once daily
[11] = SDD tablets 300 mg orally once daily
[12] = SDD tablets 600 mg orally once daily

AUC0-2 hr [1]: 321 µg·h/mL
AUC0-4 hr [1]: 727 µg·h/mL
AUC0-24 hr [1]: 4494 µg·h/mL
Cmax [1]: 247000 ng/mL
Tmax [1]: 2 h
AUC0-2 hr [2]: 100.045 µg·h/mL
AUC0-4 hr [2]: 211.597 µg·h/mL
AUC0-24 hr [2]: 1148.003 µg·h/mL
Cmax [2]: 60182 ng/mL
Tmax [2]: 2 h
Cmax ([3]; 10 mg/kg orally): 560 ng/mL
AUC(0-t) ([3]; 10 mg/kg orally): 3.9 µg·h/mL
Cmax ([3]; 200 mg/kg orally): 2000 ng/mL
AUC(0-t) ([3]; 200 mg/kg orally): 17 µg·h/mL
AUC0-90 ([4]; NaTC/POPC in PBS pH 6.5, through 90 minutes): 950 µg·min/mL
Cmax (μg/mL Compound A) ([4]; NaTC/POPC in PBS pH 6.5, up to 90 min): 12 µg/mL
AUC0-2 hr [5]: 51.205 µg·h/mL
AUC0-4 hr [5]: 103.281 µg·h/mL
AUC0-24 hr [5]: 434.380 µg·h/mL
Cmax [5]: 29891 ng/mL
Tmax [5]: 0.50 h
AUC90 [6]: 1000 µg·min/mL
Cmax90 [6]: 8000 ng/mL
SMILES: CCc1cnc(N2CCC(c3nc(COc4ccc(-n5cnnn5)cc4)cs3)CC2)nc1 [Compound A Crystalline, 5-ethyl-2-{4-[4-(4-tetrazol-1-yl-phenoxymethyl)-thiazol-2-yl]-piperidin-1-yl}-pyrimidine]

AUC(0-inf) [7, 9]: 6.5 µg·h/mL
Tmax [7, 9]: 5.4 h
half-life [7, 9]: 14 h
AUC(0-t) [7, 9]: 4.15 µg·h/mL
Cmax ([7]; SDD tablet 25 mg orally once daily, subjects with pre-diabetes): 346 ng/mL
AUC(0-inf) [7, 10]: 24.6 µg·h/mL
Cmax [7, 10]: 1150 ng/mL
Tmax [7, 10]: 2.8 h
half-life [7, 10]: 18.3 h
AUC(0-t) [7, 10]: 13.3 µg·h/mL
AUC(0-inf) [7, 11]: 45 µg·h/mL
Cmax [7, 11]: 2330 ng/mL
Tmax [7, 11]: 2.2 h
half-life [7, 11]: 15.3 h
AUC(0-t) [7, 11]: 30 µg·h/mL
Cmax [7, 12]: 3560 ng/mL
Tmax [7, 12]: 3.3 h
AUC(0-t) [7, 12]: 57.9 µg·h/mL
SMILES: CCc1cnc(N2CCC(c3nc(COc4ccc(-n5cnnn5)cc4)cs3)CC2)nc1 [Compound A, 5-ethyl-2-{4-[4-(4-tetrazol-1-yl-phenoxymethyl)-thiazol-2-yl]-piperidin-1-yl}-pyrimidine]
fasting plasma glucose (FPG) and glucose excursion following MMTT and OGTT ([8]; studies conducted to date): consistently lowered
reduction in glucose, net of placebo ([8]; subsets of subjects with the greatest degree of glucose intolerance at baseline, pooled, any dose, Phase 1c (study C)): up to 77%
